Laboratory results as given in patent US20080227813A1, “Pharmaceutical compositions and methods for treating diseases associated with neurodegeneration” (priority 2006, published 2008).
Like-named read-outs stand apart in the source and are kept apart here.

Assays:
[1] = tested on: human hepatocytes
[2] = Relative animal toxicokinetic and human pharmacokinetic drug exposures; type: in vivo; conditions: maximum human drug exposure (100 mg tid) = 1.0
[3] = tested on: healthy young male subjects; conditions: human, single oral doses 50-800 mg
Protocol: The study was conducted in 12 volunteers, in accordance with the Helsinski Declaration, European Good Clinical Practices and Huriet law. The volunteers were divided into two groups (n=6 in each group).
The dose was administered orally, under medical supervision, after a 10 h abstinence from food. No concomitant medication was allowed within the period of time from the screening examination to 24 h after the last administration.

[4] = rat, in vivo
[5] = dog, in vivo, po
Protocol: Four animals of both sexes/groups were used, except the control and high dose group where the groups were completed with 2 recovery animals in both sexes.
The check of mortality and the clinical observations were performed twice daily, the weighing of non-consumed food was done daily. The body weight of the animals was measured once a week. The urine, hematological, clinical chemical and ECG investigations were performed before the first treatment day and at termination of the treatment and at the end of the recovery period. The blood samples for kinetic analysis were taken in the 2nd and in the 104th, 110th and 111th treatment days. The opthalmoscopic examinations were performed prior to the treatment, at termination of the treatment and at the end of the recovery period. Terminally gross necropsy and histopathological examinations were performed in all animals.

[6] = tested on: CRL:(WI)BR rats; assay: Acute intraperitoneal toxicity in rats; type: in vivo; conditions: rat
Protocol: Acute intraperitoneal toxicity studies were performed in rats (CRL(WI:)BR) and in mice (CRL: NMRI BR).
A control and five dose groups were involved in the rat study at dose levels of 500 mg/kg, 650 mg/kg, 800 mg/kg, 950 mg/kg and 1200 mg/kg (equal to 310 mg/kg, 403 mg/kg, 496 mg/kg, 589 mg/kg and 744 mg/kg free base, n=5 animals/sex/group).

[7] = tested on: rats; assay: 180-day repeated dose oral toxicity study in rats
Protocol: A six-month repeated dose oral toxicity study of Compound I was performed in rats involving a control (physiologic saline, n=32/sex) and dose groups of 200 mg/kg/day, 400 mg/kg/day and 900 mg/kg/day (equal to 124 mg/kg, 248 mg/kg and 558 mg/kg free base, n=20/sex, 20/sex and 32/sex, respectively). The test item was dissolved in distilled water. Treatment was carried out by a stomach tube daily. The application volume was adjusted weekly according to the animal's body weight changes.
Clinical observations were made once daily. Body weight and food consumption were measured and evaluated weekly. Urine collection, blood sampling for hematological, clinical chemistry evaluation and gross necropsy were conducted at the end of the treatment period. Full histopathologic examination was performed on the preserved organs and tissues of the vehicle control and high dose groups. In addition, the liver, kidneys, testes, epididymis and organs showing macroscopic alterations were examined microscopically in the low and medium doses.
Compound I content (pre-dose concentration) was determined in serum on days 1, 49, 111 and 173. The serum samples were analyzed by liquid/liquid extraction, and ion-pair HPLC. Twelve animals per sex of the controls and high dose groups were kept alive for a 28-day post-treatment recovery period. They were processed in the same way as animals at the termination of treatment.

[8] = 28-day repeated dose oral toxicokinetic study in rats; conditions: for Tmax: rat, in vivo, po
Protocol: A 28-day repeated dose oral toxicokinetic study of Compound I was performed in rats involving dose groups of 375 mg/kg, 750 mg/kg and 1500 mg/kg/day (equal to 233 mg/kg, 465 mg/kg and 930 mg/kg free base) (n=5 animals/sex/group). Blood samples were taken after the first and after the last doses to determine the kinetic parameters.

[9] = tested on: CRL:NMRI BR mice; assay: Acute oral toxicity in mice; type: in vivo; conditions: mouse
Protocol: All animal toxicology studies were performed at Toxicological Research Centre (Veszprém, Hungary) using protocols compliant with OECD guidelines and Principles of Good Laboratory Practice. Following is a summary of the studies conducted.
Acute oral toxicity studies were performed in rats (CRL(WI:)BR) and in mice (CRL: NMRI BR). A control and five dose groups were involved in the rat study at dose levels of 2000 mg/kg, 2600 mg/kg, 3400 mg/kg, 4400 mg/kg and 5700 mg/kg (equal to 1241 mg/kg, 1613 mg/kg, […], 2729 mg/kg and 3535 mg/kg free base, n=5 animals/sex/group).

[10] = tested on: Salmonella typhimurium strains TA98, TA100, TA1537, TA1535 and Escherichia coli WP2 uvrA; assay: Genotoxicity in bacterial assays; type: cell-based; conditions: up to 5000 μg test item/plate, with and without rat liver fraction

What does the source list for [O-][n+]1cccc(/C(Cl)=N/OC[C@H](O)CN2CCCCC2)c1 [Compound I, N-[2-hydroxy-3-(1-piperidinyl)-propoxy]-pyridine-1-oxide-3-carboximidoyl chloride]?
amount of metabolite No. 1 [1]: 0.64 % of the total radioactivity; amount of metabolite No. 2 [1]: 0.60 % of the total radioactivity; amount of metabolite No. 3 [1]: 0.80 % of the total radioactivity; amount of metabolite No. 4 [1]: 0.62 % of the total radioactivity; amount of metabolite No. 5 (bimoclomol) [1]: 2.59 % of the total radioactivity; clearance ([1]; human, hepatocytes): 0.040 mL/h; t1/2 ([1]; human, hepatocytes): 17.2 h; Fold-above minimum effective mouse exposure ([2]; AUC): 12; Fold-above minimum effective rat exposure ([2]; AUC): 5.9; Fold-below dog drug exposure at NOAEL ([2]; AUC): 17; Fold-below rat drug exposure at NOAEL ([2]; AUC): 6.0; Fold-above minimum effective mouse exposure ([2]; Cmax): 2.8; Fold-above minimum effective rat exposure ([2]; Cmax): 1.4; Fold-below dog drug exposure at NOAEL ([2]; Cmax): 5; Fold-below rat drug exposure at NOAEL ([2]; Cmax): 28; changes in safety parameters (laboratory parameters, vital signs, ECGs) [3]: No changes in any safety parameters; serious adverse events or deaths [3]: no serious adverse events or deaths; clearance [4]: higher than the hepatic clearance; time of peak serum values ([4]; po, 25.8 mg/kg): 15 min; AUCtot ([5]; 50 mg/kg/day): 40220 ng·h/mL; Cmax ([5]; 50 mg/kg/day): 10840 ng/mL; MRT ([5]; 50 mg/kg/day): 3.78 h; Tmax ([5]; 50 mg/kg/day): 1.78 h; clearance ([5]; 50 mg/kg/day): 13 mL/min/kg; t½ ([5]; 50 mg/kg/day): 1.89 h; AUCtot ([5]; 80 mg/kg/day): 87010 ng·h/mL; Cmax ([5]; 80 mg/kg/day): 22000 ng/mL; MRT ([5]; 80 mg/kg/day): 4.04 h; Tmax ([5]; 80 mg/kg/day): 1.88 h; clearance ([5]; 80 mg/kg/day): 9.5 mL/min/kg; t½ ([5]; 80 mg/kg/day): 2.10 h; AUCtot ([5]; 160 mg/kg/day): 166390 ng·h/mL; Cmax ([5]; 160 mg/kg/day): 37950 ng/mL; MRT ([5]; 160 mg/kg/day): 4.57 h; Tmax ([5]; 160 mg/kg/day): 1.94 h; clearance ([5]; 160 mg/kg/day): 10.3 mL/min/kg; t½ ([5]; 160 mg/kg/day): 2.44 h; Intraperitoneal LD50 value ([6]; female, by base): 770 - by base mg/kg; Intraperitoneal LD50 value ([6]; female, by citrate): 1241 - by citrate mg/kg; Intraperitoneal LD50 value ([6]; male, by base): 698 (577-3871) by base mg/kg; Intraperitoneal LD50 value ([6]; male, by citrate): 1125 (931-6241) by citrate mg/kg; mortality ([7]; rat, 200, 400, 900 mg/kg/day oral, six months): No test item related mortality occurred; NOEL ([7]; rat, both sexes, six-month oral): 200 mg/kg/day; accumulation in serum ([7]; rat, in vivo, po): No accumulation; Cmax ([8]; male rats, 750 mg/kg/day oral, Day 28): 20410 ng/mL; Tmax ([8]; 375 mg/kg): 1 h; Tmax ([8]; 375 mg/kg/day): 0.5 h; Tmax ([8]; 750 mg/kg): 2 h; Tmax ([8]; 1500 mg/kg): 2 h; Oral LD50 value ([9]; female, by base): >3101 - by base mg/kg; Oral LD50 value ([9]; female, by citrate): >5000 - by citrate mg/kg; Oral LD50 value ([9]; male, by base): >3101 - by base mg/kg; Oral LD50 value ([9]; male, by citrate): >5000 - by citrate mg/kg; mutagenic activity [10]: no mutagenic activity
